In patent publication US12662469B2 (SIRONAX LTD, priority 2018, dated 2026) one finds EC50 data, which are given here for 35 compounds.

What is called EC50 is the concentration needed to bring the measured effect to its halfway point.

In one experiment the test system is Cell Necrosis. In words: Cell necrosis assay / cell viability assay (necrosis inhibitor activity). Format: cell-based. As to conditions: necrosis inhibitor activity; EC data for 14-191 extrapolated; read-out: EC50.
For `O=C(N1CC(Oc2ccc3cc[nH]c3c2)C1)N1N=CCC1c1cc(F)cc(F)c1` (stereo not drawn) [Compound 177], the EC50 is 1 to 1000 nM.

`O=C(N1CC(Cc2ccc(F)cc2)C1)N1N=CCC1c1ccccc1` (stereo not drawn) [Compound 42, (3-(4-fluorobenzyl)azetidin-1-yl)(5-phenyl-4,5-dihydro-1H-pyrazol-1-yl)methanone]: the half-maximal effective concentration (EC50) is 1 to 1000 nM.

As to `O=C(N1CCN(c2ncc(F)cn2)CC1)N1N=CCC1c1ccccc1` (stereo not drawn) [Compound 83, (4-(5-fluoropyrimidin-2-yl)piperazin-1-yl)(5-phenyl-4,5-dihydro-1H-pyrazol-1-yl)methanone], the EC50 was 1 to 1000 nM.

On to `C[C@@H]1CN(c2ncc(F)cn2)CCN1C(=O)N1N=CCC1c1ccccc1` (stereo partly drawn) [Compound 114A, ((R)-4-(5-fluoropyrimidin-2-yl)-2-methylpiperazin-1-yl)(5-phenyl-4,5-dihydro-1H-pyrazol-1-yl)methanone], for which the EC50 is 1 to 1000 nM.

With `CC(=C1CN(C(=O)N2N=CCC2c2ccccc2)C1)c1ccccc1` (stereo not drawn) [Compound 123, (5-phenyl-4,5-dihydro-1H-pyrazol-1-yl)(3-(1-phenylethylidene)azetidin-1-yl)methanone], the 50% effective concentration (EC50) was 1 to 1000 nM.

With `O=C(N1CC(C(F)c2ccc(F)cc2F)C1)N1N=CCC1c1cc(F)cc(F)c1` (stereo not drawn) [Compound 134, (5-(3,5-difluorophenyl)-4,5-dihydro-1H-pyrazol-1-yl)(3-((2,4-difluorophenyl)fluoromethyl)azetidin-1-yl)methanone], the EC50 was 1 to 1000 nM.

On to `O=C(N1CC[C@@H](Oc2cccc(Cl)c2)C1)N1N=CCC1c1ccccc1` (stereo partly drawn) [Compound 35, ((R)-3-(3-chlorophenoxy)pyrrolidin-1-yl)(5-phenyl-4,5-dihydro-1H-pyrazol-1-yl)methanone], for which the half-maximal effective concentration (EC50) is 1000 to 10000 nM.

On to `O=C(N1CCN(c2ncccn2)CC1)N1N=CCC1c1ccccc1` (stereo not drawn) [Compound 84, (5-phenyl-4,5-dihydro-1H-pyrazol-1-yl)(4-(pyrimidin-2-yl)piperazin-1-yl)methanone], for which the 50% effective concentration (EC50) was 1 to 1000 nM.

Regarding `O=C(NC1CCN(c2ccc(F)cn2)C1)N1N=CCC1c1ccccc1` (stereo not drawn) [Compound 23, N-(1-(5-fluoropyridin-2-yl)pyrrolidin-3-yl)-5-phenyl-4,5-dihydro-1H-pyrazole-1-carboxamide], the EC50 is 1 to 1000 nM.

In the case of `C[C@H]1CN(c2ncc(F)cn2)CCN1C(=O)N1N=CCC1c1cccc(F)c1` (stereo partly drawn) [Compound 117A, ((S)-5-(3-fluorophenyl)-4,5-dihydro-H-pyrazol-1-yl)((S)-4-(5-fluoropyrimidin-2-yl)-2-methylpiperazin-1-yl)methanone], the concentration giving a half-maximal response (EC50) is 1 to 1000 nM.

With `O=C(N1CCN(c2nccs2)CC1)N1N=CCC1c1ccccc1` (stereo not drawn) [Compound 92, (5-phenyl-4,5-dihydro-1H-pyrazol-1-yl)(4-(thiazol-2-yl)piperazin-1-yl)methanone], the EC50 was 1 to 1000 nM.

For the compound `O=C(N1CC(Oc2cccnc2)C1)N1N=CCC1c1ccccc1` (stereo not drawn) [Compound 74, (5-phenyl-4,5-dihydro-1H-pyrazol-1-yl)(3-(pyridin-3-yloxy)azetidin-1-yl)methanone], the half-maximal effective concentration (EC50) was 1 to 1000 nM.

`O=C(N1CC(Cc2ccc(F)cc2F)C1)N1N=CCC1c1ccccc1` (stereo not drawn) [Compound 50, (3-(2,4-difluorobenzyl)azetidin-1-yl)(5-phenyl-4,5-dihydro-1H-pyrazol-1-yl)methanone]: the EC50 is 1 to 1000 nM.

Regarding `O=C(N1CC(Cc2ccc(F)cc2F)C1)N1N=CCC1c1cc(F)cc(F)c1` (stereo not drawn) [Compound 54, (3-(2,4-difluorobenzyl)azetidin-1-yl)(5-(3,5-difluorophenyl)-4,5-dihydro-1H-pyrazol-1-yl)methanone], the 50% effective concentration (EC50) was 1 to 1000 nM.

The experiment is the same for the next values; noted with them: necrosis inhibitor activity; compounds outside 14-191; read-out: EC50.
Consider `N#Cc1cncc(O[C@@H]2CCN(C(=O)N3N=CC[C@H]3c3cc(F)cc(F)c3)C2)n1` [Compound 335, 6-(((R)-1-((S)-5-(3,5-difluorophenyl)-4,5-dihydro-1H-pyrazole-1-carbonyl)pyrrolidin-3-yl)oxy)pyrazine-2-carbonitrile], for which the EC50 was 1 to 1000 nM.

Consider `N#Cc1ccnc(OC2CN(C(=O)N3N=CC[C@H]3c3cc(F)cc(F)c3)C2)n1` [Compound 264, (S)-2-((1-(5-(3,5-difluorophenyl)-4,5-dihydro-1H-pyrazole-1-carbonyl)azetidin-3-yd)oxy)pyrimidine-4-carbonitrile], for which the concentration giving a half-maximal response (EC50) was 1 to 1000 nM.

For `NC(=O)c1cnc2ccc(O[C@@H]3CCN(C(=O)N4N=CC[C@H]4c4cc(F)cc(F)c4)C3)nn12` [Compound 241, 6-(((R)-1-((S)-5-(3,5-difluorophenyl)-4,5-dihydro-1H-pyrazole-1-carbonyl)pyrrolidin-3-yl)oxy)imidazo[1,2-b]pyridazine-3-carboxamide], the EC50 lay within 1 to 1000 nM.

`O=C(N1CC(Oc2nc(Cl)ncc2F)C1)N1N=CC[C@H]1c1cc(F)cc(F)c1` [Compound 267]: the concentration for a half-maximal effect (EC50) lay in the range of 1 to 1000 nM.

Regarding `CNc1nc(OC2CN(C(=O)N3N=CC[C@H]3c3cc(F)cc(F)c3)C2)c(F)cc1F` [Compound 262, (S)-(3-((3,5-difluoro-6-(methylamino)pyridin-2-yl)oxy)azetidin-1-yl)(5-(3,5-difluorophenyl)-4,5-dihydro-1H-pyrazol-1-yl)methanone], the EC50 was 1 to 1000 nM.

With `O=C(N1CC(=Cc2c(F)cc(F)cc2F)C1)N1N=CCC1c1cc(F)cc(F)c1` (stereo not drawn) [Compound 304, (5-(3,5-difluorophenyl)-4,5-dihydro-1H-pyrazol-1-yl)(3-(2,4,6-trifluorobenzylidene)azetidin-1-yl)methanone], the EC50 was 1 to 1000 nM.

As for `O=C(N1CC(=Cc2cc(NC3CC3)ncc2F)C1)N1N=CC[C@H]1c1cc(F)cc(F)c1` [Compound 326, (S)-(3-((2-(cyclopropylamino)-5-fluoropyridin-4-yl)methylene)azetidin-1-yl)(5-(3,5-difluorophenyl)-4,5-dihydro-1H-pyrazol-1-yl)methanone], the EC50 is 1 to 1000 nM.

Consider `O=C(N1CC(Oc2ccc3ncc(=O)[nH]c3n2)C1)N1N=CC[C@H]1c1cc(F)cc(F)c1` [Compound 256, (S)-6-((1-(5-(3,5-difluorophenyl)-4,5-dihydro-1H-pyrazole-1-carbonyl)azetidin-3-yl)oxy)pyrido[2,3-b]pyrazin-3(4H)-one], for which the 50% effective concentration (EC50) lay within 1 to 1000 nM.

On to `O=C(N1CC(Oc2ccc(F)cc2F)C1)N1N=CCC1c1cncc(F)c1` (stereo not drawn) [Compound 213, (3-(2,4-difluorophenoxy)114zetidine-1-yl)(5-(5-fluoropyridin-3-yl)-4,5-dihydro-1H-pyrazol-1-yl)methanone], for which the concentration giving a half-maximal response (EC50) lay in the range of 1 to 1000 nM.

Turning to `N#Cc1ccc(C=C2CN(C(=O)N3N=CC[C@H]3c3cncc(F)c3)C2)c(F)n1` [Compound 324, (S)-6-fluoro-5-((1-(5-(5-fluoropyridin-3-yl)-4,5-dihydro-1H-pyrazole-1-carbonyl)azetidin-3-ylidene)methyl)picolinonitrile], the concentration for a half-maximal effect (EC50) lay within 1 to 1000 nM.

As for `N#Cc1ccc(C=C2CN(C(=O)N3N=CC[C@H]3c3cc(F)cc(F)c3)C2)c(F)n1` [Compound 323, (S)-5-((1-(5-(3,5-difluorophenyl)-4,5-dihydro-1H-pyrazole-1-carbonyl)azetidin-3-ylidene)methyl)-6-fluoropicolinonitrile], the EC50 was 1 to 1000 nM.

With `O=C(N1CC(=Cc2ccc(F)cc2F)C1)N1N=CCC1c1cncc(F)c1` (stereo not drawn) [Compound 308, (3-(2,4-difluorobenzylidene)azetidin-1-yl)(5-(5-fluoropyridin-3-yl)-4,5-dihydro-1H-pyrazol-1-yl)methanone], the EC50 is 1 to 1000 nM.

Take `O=C(N1CC[C@@H](Oc2cccc(Cl)c2)C1)N1N=CCC1c1ccccc1` (stereo partly drawn) [Compound 35, ((R)-3-(3-chlorophenoxy)pyrrolidin-1-yl)(5-phenyl-4,5-dihydro-1H-pyrazol-1-yl)methanone]: the EC50 fell in the range of 1 to 1000 nM.

In the case of `CN(C(=O)OC(C)(C)C)c1nccc(O[C@@H]2CCN(C(=O)N3N=CC[C@H]3c3cc(F)cc(F)c3)C2)n1` [Compound 366, tert-butyl (4-(((R)1-((S)-5-(3,5-difluorophenyl)-4,5-dihydro-1H-pyrazole-1-carbonyl)pyrrolidin-3-yl)oxy)pyrimidin-2-yl)(methyl)carbamate], the concentration for a half-maximal effect (EC50) is 1 to 1000 nM.

On to `O=C(N1CC(=Cc2ccc(Cl)cc2F)C1)N1N=CC[C@H]1c1cc(F)cc(F)c1` [Compound 313], for which the concentration for a half-maximal effect (EC50) lay within 1 to 1000 nM.

As to `O=C1COc2ccc(OC3CN(C(=O)N4N=CC[C@H]4c4cc(F)cc(F)c4)C3)cc2N1` [Compound 201, (S)-6-((1-(5-(3,5-difluorophenyl)-4,5-dihydro-1H-pyrazole-1-carbonyl)azetidin-3-yl)oxy)-2H-benzo[b][1,4]oxazin-3(4H)-one], the half-maximal effective concentration (EC50) lay within 1 to 1000 nM.

In the case of `N#Cc1cc(OC2CN(C(=O)N3N=CC[C@H]3c3cc(F)cc(F)c3)C2)c(F)cc1F` [Compound 238, (S)-5-((1(5-(3,5-difluorophenyl)-4,5-dihydro-1H-pyrazole-1-carbonyl)azetidin-3-yl)oxy)-2,4-difluorobenzonitrile], the concentration for a half-maximal effect (EC50) fell in the range of 1 to 1000 nM.

In the case of `Nc1nccc(O[C@@H]2CCN(C(=O)N3N=CC[C@H]3c3cc(F)cc(F)c3)C2)n1` [Compound 367, ((R)-3-((2-aminopyrimidin-4-yl)oxy)pyrrolidin-1-yl)((S)-5-(3,5-difluorophenyl)-4,5-dihydro-1H-pyrazol-1-yl)methanone], the EC50 fell in the range of 1 to 1000 nM.

For `O=C(N1CC(=Cc2cc3[nH]nc(F)c3cc2F)C1)N1N=CCC1c1ccccc1` (stereo not drawn) [Compound 302, (3-((3,5-difluoro-1H-indazol-6-yl)methylene)azetidin-1-yl)(5-phenyl-4,5-dihydro-1H-pyrazol-1-yl)methanone], the EC50 lay in the range of 1 to 1000 nM.

For the compound `O=C(N1CC(Oc2nc(NCCO)ccc2F)C1)N1N=CC[C@H]1c1cc(F)cc(F)c1` [Compound 252, (S)(5-(3,5-difluorophenyl)-4,5-dihydro-1H-pyrazol-1-yl)(3-((3-fluoro-6-((2-hydroxyethyl)amino)pyridin-2-yl)oxy)azetidin-1-yl)methanone], the EC50 lay within 1 to 1000 nM.

Consider `N#Cc1cccc(N2CCN(C(=O)N3N=CC[C@H]3c3cc(F)cc(F)c3)CC2)n1` [Compound 233, (S)-6-(4-(5-(3,5-difluorophenyl)-4,5-dihydro-1H-pyrazol-1-carbonyl)piperazin-1-yl)picolinonitrile], for which the EC50 was 1 to 1000 nM.

With `N#Cc1cncc(C2CC=NN2C(=O)N2CC(Oc3cc4[nH]nc(F)c4cc3F)C2)c1` (stereo not drawn) [Compound 381, 5-(1-(3-((3,5-difluoro-1H-indazol-6-yl)oxy)azetidine-1-carbonyl)-4,5-dihydro-1H-pyrazol-5-yl)nicotinonitrile], the concentration for a half-maximal effect (EC50) was 1 to 1000 nM.
